Reference: patent US12274678B2, “Cannabinoids and uses thereof” (TECHNION RESEARCH & DEVELOPMENT FOUNDATION LIMITED, priority 2019, dated 2025)
Where a SMILES comes first, the peptide text is derived from it. [ ]: non-standard residue; d: D form. The star is where a group is joined. Nle = CCCC[C@H](N)C(=O)O; Cbz = O=C(OCc1ccccc1)*

Experiments:
Type in all cases: cell-based, human
[1] = tested on: NICD; assay: Western blot of NICD in Molt-4 cells pretreated with proteasome inhibitors, then Extract 12; conditions: MOLT-4 cells pretreated 1 h (MG132 2.5-7.5 μM; MG101 10 μM), then Extract 12 5 μg/mL 3 h
Procedure: FIG. 14 is a micrograph of a western blot analysis of NICD in Molt-4 cells pretreated with MG132 (proteasome inhibitor; 0, 2.5 μM, 5 μM, 7.5 μM) for 1 h and then treated with vehicle or Extract 12 (5 μg/mL) for 3 h. β-tubulin served as a loading control.
FIG. 15 is a micrograph of western blot analysis of NICD in Molt-4 cells pretreated with MG101 (proteasome inhibitor; 0, 10 μM) for 1 h and then treated with vehicle or Extract 12 (5 μg/mL) for 3 h. β-tubulin served as a loading control.
(§1) Cell Lysis and Western Blot Analyses
Following treatment, cells were solubilized in radioimmunoprecipitation assay buffer (RIPA) (Sigma-Aldrich, R0278) and the protein concentration in lysates were determined using a Bradford reagent (Sigma-Aldrich, B6916). Equal amounts of protein were resolved by Novex™ 4-20% Tris-Glycine Mini Gels (Thermo Fisher Scientific, XP04200BOX) and electrophoretically transferred to a nitrocellulose membrane (Bio-Rad, 1704159S). Membranes were blocked with TBS 0.1% Tween 20 buffer containing 5% bovine serum albumin (Sigma, A7906) for 1 h. […] Immunoreactive bands were detected by Luminata™ HRP substrate (Millipore, WBLUR0500) and visualized using a MicroChemi imager (DNR Bioimaging Systems).

[2] = tested on: MOLT-4 cells; assay: AlamarBlue cell viability assay, MOLT-4; conditions: CBD, CBDV, CF1 separately and in combinations, 24 h
Procedure: (§2) Cells were cultured in 96-well plates. At 100,000 cells/well the media was replaced with RPMI containing 0.5% FBS and different Cannabis extracts. Extracts were added in triplicate at a concentration of 1-5 μg/mL. DMSO was used as the control and applied in the same amount as in the diluted extracts. An alamarBlue® reagent was used to quantitate viability (according to the manufacturer's Instructions). Viability was measured following 24 h of incubation using fluorescence spectrophotometry at excitation and emission wavelengths of 560 and 590 nm, respectively. Viability was calculated as percent reduction between treated and control cells.

[3] = tested on: CCRF-CEM cells; assay: AlamarBlue cell viability assay, CCRF-CEM; conditions: CBD, CBDV, CF1 separately and in combinations, 24 h
Procedure: as §2

[4] = tested on: NICD; assay: Immunoblotting of NICD protein in cells; conditions: MOLT-4 cells, 3 μg/mL, 24 h
Procedure: as §1
Following treatment, cells were solubilized in radioimmunoprecipitation assay buffer (RIPA) (Sigma-Aldrich, R0278) and the protein concentration in lysates were determined using a Bradford reagent (Sigma-Aldrich, B6916). Equal amounts of protein were resolved by Novex™ 4-20% Tris-Glycine Mini Gels (Thermo Fisher Scientific, XP04200BOX) and electrophoretically transferred to a nitrocellulose membrane (Bio-Rad, 1704159S). Membranes were blocked with TBS 0.1% Tween 20 buffer containing 5% bovine serum albumin (Sigma, A7906) for 1 h. The blots were then incubated overnight at 4° C. with Full Notch1 (Millipure ABS90), from Cell Signaling Technology Notch1 V1744 (4147S), c-Myc (13987), Hes1 (11988), anti-cleaved caspase-3 antibody (9664), Phospho-C-Jun (3270), C-Jun (9165), and β-tubulin (clone D3U1W, 86298) and Chac1 (ab76386) from abcam. This was followed by incubation with horseradish peroxidase-labeled matching secondary antibodies. Immunoreactive bands were detected by Luminata™ HRP substrate (Millipore, WBLUR0500) and visualized using a MicroChemi imager (DNR Bioimaging Systems).

SMILES	restoration of NICD protein level by proteasome inhibition [1]	MOLT-4 cell death / cell apoptosis in viability assay of cannabinoids [2]	CCRF-CEM cell apoptosis in viability assay of cannabinoids [3]	NICD levels after cannabinoids [4]
CCCC[C@@H](C=O)NC(=O)[C@H](CC(C)C)NC(=O)[C@H](CC(C)C)NC(C)=O [MG101] (Ac-Leu-Leu-[Nle]-aldehyde)	did not restore	–	–	–
C=C(C)[C@@H]1CCC(C)=C[C@H]1c1c(O)cc(CCCCC)cc1O [CBD, cannabidiol, reference compound]	–	produced cell apoptosis	produced cell apoptosis	decreasing NICD levels
CCCCCc1cc(O)c(C2C=C(C)CCC2C(C)(C)O)c(O)c1 [CF1, 1,3-Benzenediol, 2-[(1R,6R)-6-(1-hydroxy-1-methylethyl)-3-methyl-2cyclohexen-1-yl]-5-pentyl]	–	produced cell apoptosis	produced cell apoptosis	decreasing NICD levels
CC(C)C[C@@H](C=O)NC(=O)[C@H](CC(C)C)NC(=O)[C@H](CC(C)C)NC(=O)OCc1ccccc1 [MG132] (Cbz-Leu-Leu-Leu-aldehyde)	did not restore	–	–	–
C=C(C)[C@@H]1CCC(C)=C[C@H]1c1c(O)cc(CCC)cc1O [CBDV, cannabidivarin]	–	produced cell apoptosis	produced cell apoptosis	decreasing NICD levels
